According to paper PMC12780499 (Zoological Research, 2025):
Counter-ions that a name gives are not always drawn.

Tested on: MRSA-infected RAW264.7 macrophages
Experiment: Intracellular antibacterial activity
Type: cell-based
Conditions: vancomycin 20 μmol/L, 2 h; MOI 10:1

SMILES: CN[C@H](CC(C)C)C(=O)N[C@H]1C(=O)N[C@@H](CC(N)=O)C(=O)N[C@H]2C(=O)N[C@H]3C(=O)N[C@H](C(=O)N[C@H](C(=O)O)c4cc(O)cc(O)c4-c4cc3ccc4O)[C@H](O)c3ccc(c(Cl)c3)Oc3cc2cc(c3O[C@@H]2O[C@H](CO)[C@@H](O)[C@H](O)[C@H]2O[C@H]2C[C@](C)(N)[C@H](O)[C@H](C)O2)Oc2ccc(cc2Cl)[C@H]1O [Vancomycin, vancomycin sulfate]
- intracellular bacterial burden: approximately 1.5×10^5 CFU/mL
